Test results as given in PubChem BioAssay (NCI).
Where “and” joins values, the source holds several entries; their conditions need not be identical. Equal values may be shown once.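 Briefly, cells in 96-well plates were exposed to five compound concentrations for 48 h, and endpoints were estimated by linear interpolation. GI50 = concentration required for 50% inhibition of growth. TGI: total growth inhibition.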

Key:
Assay in all cases: DTP human tumour cell line panel, 48 h
SN12C renal = test system: SN12C renal
SF-295 CNS = test system: SF-295 CNS
KM12 colon = test system: KM12 colon
HS 578T breast = test system: HS 578T breast
PC-3 prostate = test system: PC-3 prostate
MALME-3M melanoma = test system: MALME-3M melanoma
TK-10 renal = test system: TK-10 renal
RXF 393 renal = test system: RXF 393 renal

Row | Structure (SMILES) | GI50 (SN12C renal) | TGI (SN12C renal) | GI50 (SF-295 CNS) | TGI (SF-295 CNS) | GI50 (KM12 colon) | TGI (KM12 colon) | GI50 (HS 578T breast) | TGI (HS 578T breast) | GI50 (PC-3 prostate) | TGI (PC-3 prostate) | GI50 (MALME-3M melanoma) | TGI (MALME-3M melanoma) | GI50 (TK-10 renal) | TGI (TK-10 renal) | GI50 (RXF 393 renal) | TGI (RXF 393 renal)
1 | COc1ccc(C2[C@@H](c3ccccc3)C(=O)N2c2cc(OC)c(OC)c(OC)c2)cc1F (some centres not stated) | 0.0561 µM | > 100 µM | 0.029 µM | 1.78 µM | 0.0331 µM | > 100 µM | 0.0434 µM | 78.7 µM | 0.0403 µM | > 100 µM | > 100 µM | > 100 µM | 1.68 µM | > 100 µM |  | 
2 | COc1ccc(/C=N/NC(=O)c2cccc3cc[nH]c23)cc1O | 0.493 µM | > 40.9 µM | 0.736 µM | > 24.8 µM | 0.883 µM | > 100 µM | 1.47 µM | > 30.3 µM | 2.05 µM | > 100 µM | 1.96 µM | > 100 µM | 14.4 µM | > 100 µM | 5.83 µM | > 100 µM
3 | O=C(O)c1ccc2c(c1C(=O)O)C(=O)OC2(c1ccc(O)cc1)c1ccc(O)cc1 |  | > 100 µM |  | > 100 µM |  | > 100 µM |  | > 100 µM |  | > 100 µM |  | > 100 µM |  | > 100 µM |  | > 100 µM
4 | O=C(CCCSc1nc(-c2ccccc2)cc(-c2ccccc2)n1)NO | 1.94 µM | 9.1 µM | 2.17 µM | 6.98 µM | 2.64 µM | 12.9 µM | 2.32 µM | 27 µM | 1.72 µM | 13.6 µM | 1.95 µM | 9.71 µM | 0.669 µM | 19.1 µM | 0.525 µM | 3.05 µM
5 | O=C(/C(=C/c1ccc([N+](=O)[O-])cc1)SCc1ccccc1)c1ccc(Cl)cc1 | 2.66 µM | 8.58 µM | 5.54 µM | 18.9 µM | 2.34 µM | 6.91 µM | 2.4 µM | 8.2 µM | 2.35 µM | 5.43 µM | 3.12 µM | 11.7 µM | 5.11 µM | 18.1 µM | 1.68 µM | 3.47 µM
6 | Cc1ccc(-n2c3nc(=O)[nH]c(=O)c-3cc3cc([N+](=O)[O-])ccc32)cc1 | 20.6 µM | 56.5 µM | 15.9 µM | 37.3 µM | 3.79 µM | 16.1 µM |  |  | 12.2 µM | 36.6 µM |  |  | 29.3 µM | 64.5 µM | 49.9 µM | > 100 µM
7 | CCC(=C/[C@H](C)C/C=C/C(C)=C/[C@@H](C)C(=O)[C@@H](C)[C@H](O)[C@@H](C)CC)/C=C/[C@H]1OC(=O)C=C[C@@H]1C | < 0.01 µM | 1.27 µM | < 0.01 µM | 1.43 µM | < 0.01 µM | 1.15 µM | < 0.01 µM | 1.62 µM | < 0.01 µM | 3.04 µM | < 0.01 µM | 0.175 µM | < 0.01 µM | 1.03 µM |  | 
8 | CC1=C2C(=C[C@@](C)(CO)[C@@H]2O)C(=O)[C@](C)(O)C12CC2 |  | 0.112 µM and 0.119 µM |  |  |  | 0.105 µM and 0.568 µM |  | 0.0428 µM |  | 0.0661 µM and 0.0121 µM |  | 0.0243 µM |  | 0.106 µM |  | 0.018 µM
9 | CCCOc1cc2ccccc2cc1C(=O)Nc1nc(N)c2c(ccc3nccc32)[nH]1 | 1.42 µM | 3.22 µM | 0.0307 µM | 1.26 µM | 0.0448 µM | 1.53 µM |  |  | 0.0492 µM | 2.22 µM | 1.13 µM | 2.62 µM | 0.458 µM | 2.06 µM | 0.0426 µM | 1.16 µM
10 | CC1SC(c2ccc(F)cc2)N(NC(=O)C(O)c2ccccc2)C1=O (configuration not stated) | > 100 µM | > 100 µM | > 100 µM | > 100 µM | > 100 µM | > 100 µM | > 100 µM | > 100 µM | > 100 µM | > 100 µM |  |  | > 100 µM | > 100 µM | > 100 µM | > 100 µM
11 | CC1(C)OC1COc1c2occc2cc2ccc(=O)oc12 (configuration not stated) |  | > 100 µM |  | > 100 µM |  | > 100 µM |  | > 100 µM |  | > 100 µM |  | > 100 µM |  |  |  | > 100 µM
12 | Cn1ccc2c3c(Oc4ccc(NC(N)=O)cc4)ccnc3ccc21 | > 100 µM | > 100 µM | > 100 µM | > 100 µM | > 100 µM | > 100 µM | 40.1 µM | > 100 µM | > 100 µM | > 100 µM | > 100 µM | > 100 µM | > 100 µM | > 100 µM | > 100 µM | > 100 µM
13 | COc1cc(-c2ccc3cc(OC)c(OC)c(OC)c3c2)cc(OC)c1OC | > 100 µM | > 100 µM |  |  | 5.93 µM | > 100 µM | 15.4 µM | > 100 µM | 5.81 µM | > 100 µM | 8.75 µM | > 100 µM | 27.9 µM | 84.3 µM | 5.91 µM | 44 µM
14 | Nc1n[nH]c2cccc(C#Cc3cccc(C(=O)Nc4ccc(CN5CCOCC5)c(C(F)(F)F)c4)c3)c12 | 2.48 µM | 9.48 µM | 2.03 µM | 6.1 µM | 2.81 µM | 9.65 µM | 2.19 µM | 8.23 µM | 2.16 µM | 7.79 µM | 0.446 µM | 2.69 µM | 4.22 µM | 12.9 µM | 1.53 µM | 3.44 µM
15 | O=C(O)c1nc2nc(Cl)c(Cl)nc2[nH]1 |  | > 100 µM |  | > 100 µM |  | > 100 µM |  | > 100 µM |  | > 100 µM |  | > 100 µM |  | > 100 µM |  | > 100 µM
16 | CCOC(=O)C1=C(C)N(c2ccc(F)cc2F)[C@]2(C#N)C(O)=C(Cl)C(Cl)=C(O)[C@]12C#N | > 100 µM | > 100 µM | > 100 µM | > 100 µM | > 100 µM | > 100 µM | > 100 µM | > 100 µM |  |  | > 100 µM | > 100 µM | > 100 µM | > 100 µM | > 100 µM | > 100 µM
17 | Nc1ccccc1SC(CC(=O)c1ccccc1)c1cccc([N+](=O)[O-])c1 (configuration not stated) | 13.9 µM | 26.9 µM | 16.2 µM | 30.3 µM | 6.24 µM | 19.3 µM | 21.5 µM | 57.3 µM | 12.5 µM | 25.5 µM | 16.9 µM | 31.3 µM | 20.7 µM | 35.1 µM | 15 µM | 28.6 µM
